Experimental data reported in PubChem BioAssay (NCI).
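How tested: cells in 96-well plates exposed to compound for 48 hours at five concentrations. Definition used: TGI = concentration required for complete inhibition of growth.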

Legend:
Assay in all cases: growth of human tumour cells (NCI), 48 h
A498 renal = tested on: A498 renal
HCT-15 colon = tested on: HCT-15 colon
HOP-62 NSCLC = tested on: HOP-62 NSCLC
MDA-N = tested on: MDA-N
NCI-H23 lung = tested on: NCI-H23 lung
NCI-H460 lung = tested on: NCI-H460 lung
RPMI-8226 leukemia = tested on: RPMI-8226 leukemia
SF-268 CNS = tested on: SF-268 CNS
SK-MEL-5 melanoma = tested on: SK-MEL-5 melanoma
SF-539 CNS = tested on: SF-539 CNS

CC(C)(C)OC(=O)N[C@@H](Cc1ccccc1)C(=O)N1CC[C@@H](C(=O)N2[C@H]3CC4CC[C@@]3(CS2(=O)=O)C4(C)C)N1
TGI (A498 renal): > 100 µM | TGI (HCT-15 colon): > 100 µM | TGI (HOP-62 NSCLC): > 100 µM | TGI (MDA-N): > 100 µM | TGI (NCI-H23 lung): > 100 µM | TGI (NCI-H460 lung): > 100 µM | TGI (RPMI-8226 leukemia): > 100 µM | TGI (SF-268 CNS): > 100 µM | TGI (SK-MEL-5 melanoma): 75 µM

Cn1c(=O)c2[nH]cnc2n(C)c1=O
TGI (HCT-15 colon): > 100 µM | TGI (HOP-62 NSCLC): > 100 µM | TGI (MDA-N): > 100 µM | TGI (NCI-H23 lung): > 100 µM | TGI (NCI-H460 lung): > 100 µM | TGI (RPMI-8226 leukemia): > 100 µM | TGI (SK-MEL-5 melanoma): > 100 µM

CNc1ccc([N+](=O)[O-])cc1C(=O)N1CCC[C@H]1CO
TGI (A498 renal): > 100 µM | TGI (HCT-15 colon): > 100 µM | TGI (HOP-62 NSCLC): > 100 µM | TGI (MDA-N): > 100 µM | TGI (NCI-H23 lung): > 100 µM | TGI (NCI-H460 lung): > 100 µM | TGI (RPMI-8226 leukemia): > 100 µM | TGI (SF-268 CNS): > 100 µM | TGI (SK-MEL-5 melanoma): > 100 µM

O=C(NNc1ccc([N+](=O)[O-])cc1)C1OC(CO)C(O)C1O (configuration not stated)
TGI (A498 renal): > 100 µM | TGI (HCT-15 colon): > 100 µM | TGI (HOP-62 NSCLC): > 100 µM | TGI (NCI-H23 lung): > 100 µM | TGI (NCI-H460 lung): > 100 µM | TGI (RPMI-8226 leukemia): > 100 µM | TGI (SF-268 CNS): > 100 µM | TGI (SF-539 CNS): > 100 µM | TGI (SK-MEL-5 melanoma): > 100 µM

Cc1cccc(-c2cc(=O)c3c(C)ccnc3[nH]2)c1
TGI (A498 renal): > 100 µM | TGI (HCT-15 colon): > 100 µM | TGI (HOP-62 NSCLC): > 100 µM | TGI (NCI-H23 lung): > 100 µM | TGI (NCI-H460 lung): 16.3 µM | TGI (RPMI-8226 leukemia): 26.1 µM | TGI (SF-268 CNS): > 100 µM | TGI (SF-539 CNS): > 100 µM | TGI (SK-MEL-5 melanoma): 27.8 µM

Cc1ccc(Oc2cc(C)ccc2P(=O)(O)O)cc1
TGI (HCT-15 colon): > 100 µM | TGI (HOP-62 NSCLC): > 100 µM | TGI (MDA-N): > 100 µM | TGI (NCI-H23 lung): > 100 µM | TGI (RPMI-8226 leukemia): > 100 µM | TGI (SF-268 CNS): > 100 µM | TGI (SF-539 CNS): > 100 µM | TGI (SK-MEL-5 melanoma): > 100 µM

Nc1ncc(Cc2nn3c(COc4ccc(Cl)cc4)nnc3s2)s1
TGI (HCT-15 colon): 19.1 µM | TGI (HOP-62 NSCLC): > 100 µM | TGI (NCI-H23 lung): > 100 µM | TGI (NCI-H460 lung): > 100 µM | TGI (RPMI-8226 leukemia): > 100 µM | TGI (SF-268 CNS): > 100 µM | TGI (SF-539 CNS): > 100 µM | TGI (SK-MEL-5 melanoma): > 100 µM

COC(=O)C1CC(C=O)=C(SC)N1 (configuration not stated)
TGI (A498 renal): > 50 µM | TGI (HCT-15 colon): > 50 µM | TGI (HOP-62 NSCLC): > 50 µM | TGI (MDA-N): > 50 µM | TGI (NCI-H23 lung): > 50 µM | TGI (NCI-H460 lung): > 50 µM | TGI (RPMI-8226 leukemia): > 50 µM | TGI (SF-268 CNS): > 50 µM | TGI (SK-MEL-5 melanoma): > 50 µM

NC(=O)CN1CCN(c2nc(N3CCCC3)c3nc(Cl)c(NCc4ccccc4)nc3n2)CC1
TGI (HCT-15 colon): 17.3 µM | TGI (HOP-62 NSCLC): 4.89 µM | TGI (MDA-N): 16.4 µM | TGI (NCI-H23 lung): 35.6 µM | TGI (NCI-H460 lung): 17.5 µM | TGI (RPMI-8226 leukemia): 19.8 µM | TGI (SF-268 CNS): 17 µM | TGI (SF-539 CNS): 17.5 µM | TGI (SK-MEL-5 melanoma): 15.7 µM

CC(=O)Nc1oc(C)nc1C#N
TGI (A498 renal): > 100 µM | TGI (HCT-15 colon): > 100 µM | TGI (HOP-62 NSCLC): > 100 µM | TGI (MDA-N): > 100 µM | TGI (RPMI-8226 leukemia): > 100 µM | TGI (SF-268 CNS): > 100 µM | TGI (SK-MEL-5 melanoma): > 100 µM

COc1ccc(/C=C(\C#N)c2nc(-c3cc4ccccc4oc3=O)cs2)cc1
TGI (HCT-15 colon): > 100 µM | TGI (HOP-62 NSCLC): 29.5 µM | TGI (MDA-N): > 100 µM | TGI (NCI-H460 lung): 57.1 µM | TGI (RPMI-8226 leukemia): > 100 µM | TGI (SF-268 CNS): 83.4 µM | TGI (SF-539 CNS): 54.9 µM | TGI (SK-MEL-5 melanoma): > 100 µM

CC(C)=CCC/C(C)=C/CCC1(C)C2COC(=O)C21 (configuration not stated)
TGI (A498 renal): > 100 µM | TGI (HCT-15 colon): > 100 µM | TGI (HOP-62 NSCLC): > 100 µM | TGI (MDA-N): > 100 µM | TGI (NCI-H23 lung): > 100 µM | TGI (NCI-H460 lung): > 100 µM | TGI (SF-268 CNS): > 100 µM | TGI (SK-MEL-5 melanoma): 91.7 µM

COC(=O)[C@]12CCC(=O)N1[C@H](C(=O)O)Cc1c2[nH]c2ccccc12
TGI (A498 renal): > 100 µM | TGI (HCT-15 colon): > 100 µM | TGI (HOP-62 NSCLC): > 100 µM | TGI (MDA-N): > 100 µM | TGI (NCI-H23 lung): > 100 µM | TGI (NCI-H460 lung): > 100 µM | TGI (SF-268 CNS): > 100 µM | TGI (SF-539 CNS): > 100 µM | TGI (SK-MEL-5 melanoma): > 100 µM

O/N=C1/CCCCC1NO (configuration not stated)
TGI (HCT-15 colon): > 100 µM | TGI (HOP-62 NSCLC): > 100 µM | TGI (MDA-N): > 100 µM | TGI (NCI-H23 lung): > 100 µM | TGI (NCI-H460 lung): > 100 µM | TGI (RPMI-8226 leukemia): > 100 µM | TGI (SF-268 CNS): > 100 µM | TGI (SF-539 CNS): > 100 µM | TGI (SK-MEL-5 melanoma): > 100 µM

CC(=O)Oc1ccc(-c2c(OC(C)=O)c(OC(C)=O)c(-c3ccc(OC(C)=O)c(OC(C)=O)c3)c(OC(C)=O)c2OC(C)=O)cc1
TGI (A498 renal): > 100 µM | TGI (HCT-15 colon): 37.3 µM | TGI (MDA-N): 31.5 µM | TGI (NCI-H23 lung): 38 µM | TGI (NCI-H460 lung): > 100 µM | TGI (RPMI-8226 leukemia): 35.4 µM | TGI (SF-268 CNS): 32.8 µM | TGI (SF-539 CNS): 34.3 µM | TGI (SK-MEL-5 melanoma): 25.5 µM

CN1C(C(=O)Nc2ccccn2)=C(O)c2ccccc2S1(=O)=O
TGI (HCT-15 colon): > 100 µM | TGI (HOP-62 NSCLC): > 100 µM | TGI (MDA-N): > 100 µM | TGI (NCI-H23 lung): > 100 µM | TGI (RPMI-8226 leukemia): > 100 µM | TGI (SF-268 CNS): > 100 µM | TGI (SF-539 CNS): > 100 µM | TGI (SK-MEL-5 melanoma): > 100 µM

CCCNC(=O)Cn1c(-c2ccccc2)cc2ccccc21
TGI (HCT-15 colon): > 100 µM | TGI (HOP-62 NSCLC): > 100 µM | TGI (MDA-N): > 100 µM | TGI (NCI-H23 lung): > 100 µM | TGI (NCI-H460 lung): > 100 µM | TGI (RPMI-8226 leukemia): > 100 µM | TGI (SF-268 CNS): > 100 µM | TGI (SF-539 CNS): > 100 µM | TGI (SK-MEL-5 melanoma): > 100 µM

C=C1C[C@]23CC[C@@H]4C(CO)(CO)CC(=O)C[C@]4(C)[C@@H]2C(O)C[C@H]1C3 (some centres not stated)
TGI (HCT-15 colon): > 100 µM | TGI (HOP-62 NSCLC): > 100 µM | TGI (MDA-N): > 100 µM | TGI (NCI-H23 lung): > 100 µM | TGI (NCI-H460 lung): > 100 µM | TGI (RPMI-8226 leukemia): > 100 µM | TGI (SF-268 CNS): > 100 µM | TGI (SF-539 CNS): > 100 µM

Cn1cnc([N+](=O)[O-])c1Sc1nncc2[nH]cnc12
TGI (A498 renal): > 100 µM | TGI (HCT-15 colon): > 100 µM | TGI (HOP-62 NSCLC): > 100 µM | TGI (MDA-N): > 100 µM | TGI (NCI-H23 lung): > 100 µM | TGI (RPMI-8226 leukemia): > 100 µM | TGI (SF-539 CNS): > 100 µM | TGI (SK-MEL-5 melanoma): > 100 µM

C=C1C(=O)OC2C1CC1OC2C(C)CCC/C(C)=C\CCC1(C)O (configuration not stated)
TGI (A498 renal): 60.3 µM | TGI (HCT-15 colon): 63.6 µM | TGI (HOP-62 NSCLC): > 65.9 µM | TGI (NCI-H23 lung): 29 µM | TGI (NCI-H460 lung): 60.9 µM | TGI (RPMI-8226 leukemia): 24.3 µM | TGI (SF-268 CNS): 51.8 µM | TGI (SF-539 CNS): 48.7 µM | TGI (SK-MEL-5 melanoma): 12.4 µM

OCC1=C[C@@](COCc2ccccc2)(OCc2ccccc2)[C@@H](OCc2ccccc2)[C@@H]1OCc1ccccc1
TGI (A498 renal): 31.8 µM | TGI (HCT-15 colon): 57.8 µM | TGI (HOP-62 NSCLC): 70.6 µM | TGI (MDA-N): 53.6 µM | TGI (NCI-H23 lung): 38.8 µM | TGI (NCI-H460 lung): 53.1 µM | TGI (RPMI-8226 leukemia): 7.33 µM | TGI (SF-268 CNS): > 100 µM | TGI (SK-MEL-5 melanoma): 30.5 µM

CCCCN=C(OC1C=CCCC1)SC (configuration not stated)
TGI (A498 renal): > 100 µM | TGI (HCT-15 colon): > 100 µM | TGI (HOP-62 NSCLC): > 100 µM | TGI (MDA-N): > 100 µM | TGI (NCI-H23 lung): > 100 µM | TGI (RPMI-8226 leukemia): > 100 µM | TGI (SF-268 CNS): > 100 µM | TGI (SK-MEL-5 melanoma): > 100 µM

COc1ccc(/C(Cl)=C(\C=O)c2ccc(Cl)cc2)cc1
TGI (A498 renal): 74 µM | TGI (HCT-15 colon): > 100 µM | TGI (HOP-62 NSCLC): 53.6 µM | TGI (NCI-H23 lung): 17.1 µM | TGI (NCI-H460 lung): > 100 µM | TGI (SF-268 CNS): 58.7 µM | TGI (SK-MEL-5 melanoma): 32.6 µM

O=C(c1ccccc1)c1ccc2c(c1)N=C(c1ccc(Cl)c(Cl)c1)CC(c1ccc3ccccc3c1)N2 (configuration not stated)
TGI (A498 renal): > 100 µM | TGI (HCT-15 colon): > 100 µM | TGI (HOP-62 NSCLC): > 100 µM | TGI (NCI-H23 lung): > 100 µM | TGI (NCI-H460 lung): > 100 µM | TGI (RPMI-8226 leukemia): > 100 µM | TGI (SF-268 CNS): > 100 µM | TGI (SF-539 CNS): > 100 µM | TGI (SK-MEL-5 melanoma): > 100 µM
